Results published in patent publication EP4650362A1, “NEUROPROTECTIVE PSD-95 POLYPEPTIDE INHIBITOR AND USE THEREOF” (Beijing Tuo Jie Biopharmaceutical Co. Ltd., priority 2023, dated 2024).
pEC50, pIC50: −log10 of the molar value. Where two headings read alike, the source gives them in different places. Non-standard residues stand in square brackets, D forms with d. Residues, ends and D or L forms follow the SMILES beside them. Chg = N[C@H](C(=O)O)C1CCCCC1; Tle = CC(C)(C)[C@H](N)C(=O)O; Dab = NCC[C@H](N)C(=O)O; Aib = CC(C)(N)C(=O)O

Columns and labels:
[1] = pharmacokinetic study in rats, single intravenous bolus injection; assay type: in vivo, SD rats; conditions: rats, intravenous bolus injection over 10 min, 3 nmol/g, n = 3
Experimental: With male SD rats as test animals, the pharmacokinetic behavior of polypeptide compounds administered via single intravenous bolus injection in rats (plasma) was studied.
Male SD rats weighing 170 to 200 grams and aged 4-6 weeks were purchased from Beijing Vital River Laboratory Animal Technology Co., Ltd. The polypeptide compounds were dissolved in 1× PBS, and the polypeptide compound solutions were then administered via intravenous bolus injection over 10 min at a dose of 3 nmol/g, with three animals per group. At each of the time points of 2 min, 8 min, 15 min, 30 min, 45 min, 60 min, and 120 min after the end of bolus injection, 0.2 mL of blood was collected and transferred to an EDTA-K2 anticoagulation centrifuge tube. The whole blood sample was centrifuged at 4 °C at 4000 g for 5 min, and a plasma sample was obtained by separation and cryopreserved at -80 °C.
The pharmacokinetic parameters of polypeptide compound 22, administered via intravenous bolus injection, in rats were determined using a similar method, with the difference being that an enzyme inhibitor was added immediately after blood collection.
The plasma concentrations of the test compounds were determined using the method in Test Example 3.4.3. Plasma concentration-time curves were plotted, and the pharmacokinetic parameters were calculated using PKSolver software. The experimental results are shown in Table 5-1, Table 5-2, and FIG. 3.

human PSD95-PDZ2 [2] = target: T1, human PSD95-PDZ2 (Homo sapiens, UniProt P78352); assay: competitive ELISA, affinity for human PSD95-PDZ2; assay type: binding; conditions: for pIC50: competitive ELISA against 0.3 µM Biotin-NA-1, error of this test within three times, read-out: IC50
T1 construct: PDZ2 (155-249, the Flag-His-Avitag-TEVsite tag is italicized); made in house; host or cells: E. coli BL21-DE3 (PET vector)
Text: The objective of this test example was to determine the affinities of polypeptide compounds for human PSD95-PDZ2 using competitive ELISAs.
The amino acid sequence of PDZ2 protein was designed using human PSD95 (Uniprot Entry: P78352) as a template for PDZ: PDZ2 (155-249, the Flag-His-Avitag-TEVsite tag is italicized and was subsequently used for purification and biotinylation): […]
[…] (SEQ ID NO. 62). The PDZ2 gene was constructed onto a PET expression vector, and induced expression was performed using BL21-DE3 E. coli cells under conditions of 37 °C and 1 mM IPTG 4 h. Then centrifugation was performed at 10,000 g at 4 °C for 10 min, and the cell pellets were collected, resuspended in 1× PBS solution, and then lysed using a homogenizer. The lysate was centrifuged at high speed, and the supernatant was collected and filtered through a 0.45 µm membrane. A Ni-Sepharose affinity column was equilibrated with 5 column volumes of a 20 mM phosphate buffer (pH 8.0). The sample was centrifuged at high speed to remove impurities and loaded onto the column for binding. The column was rinsed with the 20 mM phosphate buffer until the A280 reading dropped to the baseline. Gradient elution was then performed with the 20 mM phosphate buffer and 0-500 mM imidazole. A protein was collected, and whether it was the target protein was determined. The purified sample described above was buffer-exchanged into 1× PBS solution, and the resulting solution was concentrated to a volume of 2 mL and further purified using a Superdex200 gel chromatography column (GE) equilibrated with 1× PBS. The target peak was collected and aliquoted for later use.
PSD95-PDZ2 (the tag was removed by TEV enzyme) was diluted with 1× PBS buffer to 1 µg/mL, added to a 96-well microplate (Corning, 9018, 25/box 96-well clear flat bottom plate) at 100 µL/well, and left to stand overnight at 4 °C for 16-20 h. After the liquid was discarded, the plate was washed three times with PBST (pH 7.4, 0.05% Tween-20) buffer, and a 4% BSA blocking solution diluted with PBST buffer was then added (300 µL/well). The plate was blocked by incubation in an incubator at 37 °C for 1 h. After the blocking was complete, the blocking solution was discarded, and the plate was washed three times with PBST buffer. Biotin-NA-1, at a constant concentration of 0.3 µM, and the test compounds, having a starting concentration of 100 µM and serially diluted ten-fold with PBS buffer to seven concentrations (100, 10, 1, 0.1, 0.01, 0.001, 0.0001, and 0 µM), were then added, and the plate was incubated in an incubator at 37 °C for 1 h. After the incubation was complete, the reaction solutions in the microplate were discarded, and the plate was washed three times with PBST. 100 µL of HRP-SA secondary antibody (diluted at 1:2000) was added to each well, and the plate was incubated at 37 °C for 1 h. After the plate was washed three times with PBST, 100 µL of TMB chromogenic substrate was added. The plate was incubated at room temperature for 1-3 min, and 100 µL of 1 M sulfuric acid was added to stop the reaction.
The absorbance at 450 nm was measured using a SpectraMax M5 microplate reader, and non-linear fitting was performed using GraphPad Prism 9 to calculate the binding IC50 values of the test compounds to PSD95-PDZ2 protein.

human PSD95-PDZ2 [3] = target: T1, human PSD95-PDZ2; assay: binding ELISA with Biotin-PDZ2; conditions: for pEC50: plate coated with 2 µM test compound, Biotin-PDZ2 titrated, read-out: EC50 (PDZ2)
Text: (§1) The three PDZ domains in the PSD95 protein are structurally similar. Binding to the PDZ1 and PDZ2 domains can effectively block PSD95-mediated neuroexcitotoxicity. However, the biological function of binding to the PDZ3 domain is unclear. Therefore, to avoid potential safety concerns, this test example assessed the selectivity of polypeptide compounds for the PDZ2 and PDZ3 domains, aiming to identify polypeptide compounds that specifically bind to the PDZ2 domain. Site-specifically biotinylated Biotin-PDZ2 and Biotin-PDZ3 proteins were used for binding ELISA assays. […] After the blocking was complete, the blocking solution was discarded, and the plate was washed three times with PBST buffer. […] After the incubation was complete, the reaction solutions in the microplate were discarded, and the plate was washed three times with PBST. 100 µL of HRP-SA secondary antibody (diluted at 1:2000) was added to each well, and the plate was incubated at 37 °C for 1 h. After the plate was washed three times with PBST, 100 µL of TMB chromogenic substrate was added. […] The absorbance at 450 nm was measured using a SpectraMax M5 microplate reader, and the binding EC50 values of the test compounds to Biotin-PDZ2 or Biotin-PDZ3 were calculated using GraphPad Prism 9. […] The abilities of polypeptide compounds to bind to human PSD95-PDZ2 and human PSD95-PDZ3
Target sequence in this assay (P78352 155-249): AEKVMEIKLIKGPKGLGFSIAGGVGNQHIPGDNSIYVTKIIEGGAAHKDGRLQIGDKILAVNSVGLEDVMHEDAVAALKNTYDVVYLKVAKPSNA

human PSD95-PDZ3 = target: T2, human PSD95-PDZ3 (Homo sapiens, UniProt P78352); assay: binding ELISA with Biotin-PDZ3; conditions: plate coated with 2 µM test compound, Biotin-PDZ3 titrated; read-out: EC50 (PDZ3)
T2 construct: PDZ3 (309-401, Flag-His-Avitag-TEVsite tag); made in house
Text: as §1, with “domain. The expression and purification of PSD95-PDZ3 protein were carried out with reference to the steps in 3.1.2. The amino acid sequence of PDZ3 protein: […]” for “domain.”, “μL” for “µL”

T2 sequence (P78352 309-401): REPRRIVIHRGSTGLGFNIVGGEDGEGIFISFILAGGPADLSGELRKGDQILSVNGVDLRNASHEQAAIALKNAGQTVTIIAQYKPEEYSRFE

With `CC(C)[C@H](NC(=O)[C@H](CC(=O)O)NC(=O)[C@H](CO)NC(=O)[C@@H](NC(=O)[C@@H](NC(=O)[C@@H](NC(=O)CNC(=O)[C@@H](CCCNC(=N)N)NC(=O)[C@@H](CCCNC(=N)N)NC(=O)[C@@H](CCCNC(=N)N)NC(=O)[C@@H](CCC(N)=O)NC(=O)[C@@H](CCCNC(=N)N)NC(=O)[C@@H](CCCNC(=N)N)NC(=O)[C@@H](CCCCN)NC(=O)[C@@H](CCCCN)NC(=O)[C@@H](CCCNC(=N)N)NC(=O)CNC(=O)[C@H](N)Cc1ccc(O)cc1)[C@@H](C)O)C1CCCCC1)C(C)(C)C)C(=O)O` [Polypeptide compound 21, y-G-r-k-k-r-r-q-r-r-r-G-T-Chg-Tle-S-D-V] (H-[dY]G[dR][dK][dK][dR][dR][dQ][dR][dR][dR]GT[Chg][Tle]SDV-OH) as the molecule, how does the “AUC(0-t)” value [1] read?
The value was 5.66 µg·h/mL.

What about the “AUC(inf)” value [1] of the same molecule?
Its value is 6.396 µg·h/mL.

What about the AUClast/dose [1] of the same molecule?
The AUClast/dose was 745.

What about the Cmax [1] of the same molecule?
Its Cmax is 15.643 µg/mL.

What about the MRTO-inf [1] of the same molecule?
Its MRTO-inf is 48 min.

And the T1/2 [1]?
The T1/2 was 43.2 min.

And the pIC50 (human PSD95-PDZ2 [2])?
The pIC50 was 6.10.

What about the rIC50 (human PSD95-PDZ2 [2]; ratio of the affinity of the polypeptide compound to the affinity of NA-1) of the same molecule?
The rIC50 was 0.88.

What about the “selectivity for the PSD95-PDZ2 domain” value (human PSD95-PDZ2 [3]; PDZ2 versus PDZ3, conclusion in words) of the same molecule?
The value was “comparable to that of the positive drugs NA-1 and NoNO42”.

What about the pEC50 (human PSD95-PDZ2 [3]) of the same molecule?
The pEC50 was 7.74.

And the “Specificity for PDZ2 (PDZ3/PDZ2)” value (human PSD95-PDZ2 [3]; ratio PDZ3/PDZ2)?
The value was greater than 10000.

And the pEC50 (human PSD95-PDZ3)?
The pEC50 was less than 3.00.

With `CC(C)[C@H](NC(=O)[C@H](CC(=O)O)NC(=O)[C@H](CO)NC(=O)[C@@H](NC(=O)[C@@H](NC(=O)[C@@H](NC(=O)[C@H](CCN)NC(=O)C(C)(C)NC(=O)CNC(=O)[C@@H](CCCNC(=N)N)NC(=O)[C@@H](CCCNC(=N)N)NC(=O)[C@@H](CCCNC(=N)N)NC(=O)[C@@H](CCC(N)=O)NC(=O)[C@@H](CCCNC(=N)N)NC(=O)[C@@H](CCCNC(=N)N)NC(=O)[C@@H](CCCCN)NC(=O)[C@@H](CCCCN)NC(=O)[C@@H](CCCNC(=N)N)NC(=O)CNC(=O)[C@H](N)Cc1ccc(O)cc1)[C@@H](C)O)C1CCCCC1)C(C)(C)C)C(=O)O` [Polypeptide compound 19, y-G-r-k-k-r-r-q-r-r-r-G-Aib-Dab-T-Chg-Tle-S-D-V] (H-[dY]G[dR][dK][dK][dR][dR][dQ][dR][dR][dR]G[Aib][Dab]T[Chg][Tle]SDV-OH) as the molecule, how does the AUC(0-inf) ([1]; male, SD, rat, plasma) read?
The AUC(0-inf) was 11.8 µg·h/mL.

And the MRT ([1]; male, SD, rat, plasma)?
The MRT was 57.6 min.

And the AUC(0-t) ([1]; male, SD, rat, plasma, read-out: AUC(0-t))?
The AUC(0-t) was 10.2 µg·h/mL.

What about the Cmax ([1]; male, SD, rat, plasma, read-out: Cmax) of the same molecule?
The Cmax was 19.6 µg/mL.

And the half-life ([1]; male, SD, rat, plasma, read-out: T1/2 (converted))?
The half-life was 43.8 min.

And the AUClast/dose [1]?
The AUClast/dose was 1345.

What about the pIC50 (human PSD95-PDZ2 [2]) of the same molecule?
The pIC50 was 6.21.

And the pEC50 (human PSD95-PDZ2 [3])?
Its pEC50 is 7.54.

What about the pEC50 (human PSD95-PDZ3) of the same molecule?
Its pEC50 is less than 3.00.
